From patent US20250206727A1, “HETEROCYCLIC SUBSTITUTED AROMATIC COMPOUND, PREPARATION METHOD THEREFOR, HERBICIDAL COMPOSITION AND APPLICATION” (QINGDAO KINGAGROOT CHEMICAL COMPOUND CO., LTD., priority 2022, published 2025)

Assays:
Assay in all cases: Post-emergence test on weeds (greenhouse, spray at 2-3 leaf stage)
Format in all cases: in vivo
Parameters in all cases: key: Level 10: completely dead; Level 9: growth control rate greater than or equal to 90% and less than 100%; Level 8: growth control rate greater than or equal to 80% and less than 90%; Level 7: growth control rate greater than or equal to 70% and less than 80%; Level 6: growth control rate greater than or equal to 60% and less than 70%; Level 5: growth control rate greater than or equal to 50% and less than 60%; Level 4: growth control rate greater than or equal to 40% and less than 50%; Level 3: growth control rate greater than or equal to 30% and less than 40%; Level 2: growth control rate greater than or equal to 20% and less than 30%; Level 1: growth control rate less than 20%; Level 0: no effect
Conditions in all cases: 60 g a.i./ha, 3 weeks after application
Digitaria sanguinalis = test system: Digitaria sanguinalis
Description: (§1) The activity level criteria for plant damage (i.e., growth control rate) are as follows: • Level 10: completely dead; • Level 9: growth control rate greater than or equal to 90% and less than 100%; • Level 8: growth control rate greater than or equal to 80% and less than 90%; • Level 7: growth control rate greater than or equal to 70% and less than 80%; • Level 6: growth control rate greater than or equal to 60% and less than 70%; • Level 5: growth control rate greater than or equal to 50% and less than 60%; • Level 4: growth control rate greater than or equal to 40% and less than 50%; • Level 3: growth control rate greater than or equal to 30% and less than 40%; • Level 2: growth control rate greater than or equal to 20% and less than 30%; • Level 1: growth control rate less than 20%; • Level 0: no effect.
(§2) The above growth control rates are fresh weight control rates.
(§3) Monocotyledonous and dicotyledonous weed seeds (Descurainia sophia, Capsella bursa-pastoris, Abutilon theophrasti, Galium spurium, Stellaria media, Lithospermum arvense, Rorippa indica, Alopecurus aequalis, Alopecurus japonicus, Eleusine indica, Beckmannia syzigachne, Sclerochloa dura, Erigeron canadensis, Phleum paniculatum, Veronica polita, Bromus japonicus, Aegilops tauschii, Phalaris arundinacea, Amaranthus retrofexus, Chenopodium, Commelina communis, Cichorium endivia, Convolvulus arvensis, Cirsium arvense, Solanum nigrum, Acalypha australis, Digitaria sanguinalis, Echinochloa crus-galli, Setaria viridis, Setaa pumila, Lepochloa chinensis, Monochona vaginalis, Sagitta trifolia, Schoenoplectiella juncoides, Cypenus rotundus, Cyperus ira, Cyperus difformis, Fimbristylis, Portulaca oleracea, Xanthium sibiricum, Ipomoea nil, Eschenbachia japonica, etc.) and major crop seeds (wheat, maize, paddy rice, soybean, cotton, oilseed rape, millet, sorghum, potato, sesame, castor plant, etc.) were placed in plastic pots filled with soil and then covered with 0.5-2 cm of soil to allow them to grow in a favorable greenhouse environment. Two weeks after sowing, the test plants were treated at the stage of 2-3 leaves. The test compounds of the present invention were individually dissolved with acetone, then added with Tween® 80, with 1.5 L/ha of methyl oleate emulsifiable concentrate as a synergist, diluted into solutions of certain concentrations using certain amount of water, and sprayed to the plants using a spray tower. After drug application, the experimental results on weeds were collected after 3 weeks of cultivation in a greenhouse. The compounds were applied at 500, 250, […], 15, and 7.5 g a.i./ha in triplicate, and the results were averaged.

Abutilon theophrasti = test system: Abutilon theophrasti
Description: as §1, §2, §3

Setaria viridis = test system: Setaria viridis
Description: as §1, §2, §3

Echinochloa crus-galli = test system: Echinochloa crus-galli
Description: as §1, §2, §3

Amaranthus retroflexus = test system: Amaranthus retroflexus
Description: as §1, §2, §3

Veronica polita = test system: Veronica polita
Description: as §1, §2, §3

CCC1(C(=O)OC)ON=C(c2cc(-c3ncc(Cl)cc3F)c(F)cc2Cl)O1 (stereo not drawn) [Compound 16]
10: activity level (fresh weight growth control rate), Digitaria sanguinalis (Digitaria sanguinalis) | activity level (fresh weight growth control rate), Abutilon theophrasti (Abutilon theophrasti) | activity level (fresh weight growth control rate), Setaria viridis (Setaria viridis) | activity level (fresh weight growth control rate), Echinochloa crus-galli (Echinochloa crus-galli) | activity level (fresh weight growth control rate), Amaranthus retroflexus (Amaranthus retroflexus) | activity level (fresh weight growth control rate), Veronica polita (Veronica polita)

CCC1(C(=O)OC)ON=C(c2cc(-c3ncc(C(F)(F)F)cc3Cl)c(F)cc2Cl)O1 (stereo not drawn) [Compound 17]
10: activity level (fresh weight growth control rate), Digitaria sanguinalis (Digitaria sanguinalis) | activity level (fresh weight growth control rate), Abutilon theophrasti (Abutilon theophrasti) | activity level (fresh weight growth control rate), Setaria viridis (Setaria viridis) | activity level (fresh weight growth control rate), Echinochloa crus-galli (Echinochloa crus-galli) | activity level (fresh weight growth control rate), Amaranthus retroflexus (Amaranthus retroflexus) | activity level (fresh weight growth control rate), Veronica polita (Veronica polita)

CCC1(C(=O)OC)ON=C(c2cc(-c3ncc(C(F)(F)F)cc3F)c(F)cc2Cl)O1 (stereo not drawn) [Compound 19]
10: activity level (fresh weight growth control rate), Digitaria sanguinalis (Digitaria sanguinalis) | activity level (fresh weight growth control rate), Abutilon theophrasti (Abutilon theophrasti) | activity level (fresh weight growth control rate), Setaria viridis (Setaria viridis) | activity level (fresh weight growth control rate), Echinochloa crus-galli (Echinochloa crus-galli) | activity level (fresh weight growth control rate), Amaranthus retroflexus (Amaranthus retroflexus) | activity level (fresh weight growth control rate), Veronica polita (Veronica polita)

CCCC1(C(=O)OC)ON=C(c2cc(-c3ncc(C(F)(F)F)cc3Cl)c(F)cc2Cl)O1 (stereo not drawn) [Compound 20]
10: activity level (fresh weight growth control rate), Digitaria sanguinalis (Digitaria sanguinalis) | activity level (fresh weight growth control rate), Abutilon theophrasti (Abutilon theophrasti) | activity level (fresh weight growth control rate), Setaria viridis (Setaria viridis) | activity level (fresh weight growth control rate), Echinochloa crus-galli (Echinochloa crus-galli) | activity level (fresh weight growth control rate), Amaranthus retroflexus (Amaranthus retroflexus) | activity level (fresh weight growth control rate), Veronica polita (Veronica polita)

COC(=O)C1(C2CC2)ON=C(c2cc(-c3ncc(Cl)cc3F)c(F)cc2Cl)O1 (stereo not drawn) [Compound 21]
10: activity level (fresh weight growth control rate), Digitaria sanguinalis (Digitaria sanguinalis) | activity level (fresh weight growth control rate), Abutilon theophrasti (Abutilon theophrasti) | activity level (fresh weight growth control rate), Setaria viridis (Setaria viridis) | activity level (fresh weight growth control rate), Echinochloa crus-galli (Echinochloa crus-galli) | activity level (fresh weight growth control rate), Amaranthus retroflexus (Amaranthus retroflexus) | activity level (fresh weight growth control rate), Veronica polita (Veronica polita)

CCOC(=O)C1ON=C(c2cc(-c3ccc(C(F)(F)F)cn3)c(F)cc2Cl)O1 (stereo not drawn) [Compound 23]
10: activity level (fresh weight growth control rate), Digitaria sanguinalis (Digitaria sanguinalis) | activity level (fresh weight growth control rate), Abutilon theophrasti (Abutilon theophrasti) | activity level (fresh weight growth control rate), Setaria viridis (Setaria viridis) | activity level (fresh weight growth control rate), Echinochloa crus-galli (Echinochloa crus-galli) | activity level (fresh weight growth control rate), Amaranthus retroflexus (Amaranthus retroflexus) | activity level (fresh weight growth control rate), Veronica polita (Veronica polita)

CCOC(=O)C1ON=C(c2cc(-c3ncc(C(F)(F)F)cc3Cl)c(F)cc2Br)O1 (stereo not drawn) [Compound 25]
10: activity level (fresh weight growth control rate), Digitaria sanguinalis (Digitaria sanguinalis) | activity level (fresh weight growth control rate), Abutilon theophrasti (Abutilon theophrasti) | activity level (fresh weight growth control rate), Setaria viridis (Setaria viridis) | activity level (fresh weight growth control rate), Echinochloa crus-galli (Echinochloa crus-galli) | activity level (fresh weight growth control rate), Amaranthus retroflexus (Amaranthus retroflexus) | activity level (fresh weight growth control rate), Veronica polita (Veronica polita)

CCOC(=O)C1ON=C(c2cc(-c3ncc(C(F)(F)F)cc3Cl)c(F)cc2Cl)O1 (stereo not drawn) [Compound 26]
10: activity level (fresh weight growth control rate), Digitaria sanguinalis (Digitaria sanguinalis) | activity level (fresh weight growth control rate), Abutilon theophrasti (Abutilon theophrasti) | activity level (fresh weight growth control rate), Setaria viridis (Setaria viridis) | activity level (fresh weight growth control rate), Echinochloa crus-galli (Echinochloa crus-galli) | activity level (fresh weight growth control rate), Amaranthus retroflexus (Amaranthus retroflexus) | activity level (fresh weight growth control rate), Veronica polita (Veronica polita)

CCOC(=O)C1(C)ON=C(c2cc(-c3ccc(C(F)(F)F)cn3)c(F)cc2Cl)O1 (stereo not drawn) [Compound 29]
10: activity level (fresh weight growth control rate), Digitaria sanguinalis (Digitaria sanguinalis) | activity level (fresh weight growth control rate), Abutilon theophrasti (Abutilon theophrasti) | activity level (fresh weight growth control rate), Setaria viridis (Setaria viridis) | activity level (fresh weight growth control rate), Echinochloa crus-galli (Echinochloa crus-galli) | activity level (fresh weight growth control rate), Amaranthus retroflexus (Amaranthus retroflexus) | activity level (fresh weight growth control rate), Veronica polita (Veronica polita)

CCOC(=O)C1(C)ON=C(c2cc(-c3ncc(C(F)(F)F)cc3C)c(F)cc2Cl)O1 (stereo not drawn) [Compound 30]
10: activity level (fresh weight growth control rate), Digitaria sanguinalis (Digitaria sanguinalis) | activity level (fresh weight growth control rate), Abutilon theophrasti (Abutilon theophrasti) | activity level (fresh weight growth control rate), Setaria viridis (Setaria viridis) | activity level (fresh weight growth control rate), Echinochloa crus-galli (Echinochloa crus-galli) | activity level (fresh weight growth control rate), Amaranthus retroflexus (Amaranthus retroflexus) | activity level (fresh weight growth control rate), Veronica polita (Veronica polita)

CCOC(=O)C1(C)ON=C(c2cc(-c3ncc(Cl)cc3F)c(F)cc2Cl)O1 (stereo not drawn) [Compound 31]
10: activity level (fresh weight growth control rate), Digitaria sanguinalis (Digitaria sanguinalis) | activity level (fresh weight growth control rate), Abutilon theophrasti (Abutilon theophrasti) | activity level (fresh weight growth control rate), Setaria viridis (Setaria viridis) | activity level (fresh weight growth control rate), Echinochloa crus-galli (Echinochloa crus-galli) | activity level (fresh weight growth control rate), Amaranthus retroflexus (Amaranthus retroflexus) | activity level (fresh weight growth control rate), Veronica polita (Veronica polita)

CCOC(=O)C1(C)ON=C(c2cc(-c3ncc(C)cc3F)c(F)cc2Cl)O1 (stereo not drawn) [Compound 32]
10: activity level (fresh weight growth control rate), Digitaria sanguinalis (Digitaria sanguinalis) | activity level (fresh weight growth control rate), Abutilon theophrasti (Abutilon theophrasti) | activity level (fresh weight growth control rate), Setaria viridis (Setaria viridis) | activity level (fresh weight growth control rate), Echinochloa crus-galli (Echinochloa crus-galli) | activity level (fresh weight growth control rate), Amaranthus retroflexus (Amaranthus retroflexus) | activity level (fresh weight growth control rate), Veronica polita (Veronica polita)

CCOC(=O)C1(C)ON=C(c2cc(-c3ncc(C(F)(F)F)cc3OC)c(F)cc2Cl)O1 (stereo not drawn) [Compound 33]
10: activity level (fresh weight growth control rate), Digitaria sanguinalis (Digitaria sanguinalis) | activity level (fresh weight growth control rate), Abutilon theophrasti (Abutilon theophrasti) | activity level (fresh weight growth control rate), Setaria viridis (Setaria viridis) | activity level (fresh weight growth control rate), Echinochloa crus-galli (Echinochloa crus-galli) | activity level (fresh weight growth control rate), Amaranthus retroflexus (Amaranthus retroflexus) | activity level (fresh weight growth control rate), Veronica polita (Veronica polita)
